Measured values published in patent publication US8268814B2, “Substituted sulfonamide compounds” (Gruenenthal GmbH, priority 2008, dated 2012).

What was measured:
[1] = biological target: T1, B1R receptor of the rat (rB1R) (Rattus norvegicus, UniProt P97583); test: Functional FLIPR Ca2+ assay on the bradykinin 1 receptor, rat (rB1R CHO K1 cells); type: cell-based; conditions: test substance 10 μM; CHO K1 cells transfected with rat B1R gene; agonist Des-Arg9-bradykinin at EC80; % inhibition compared with maximum achievable inhibition; read-out: B1R antagonism, rat [10 μM] % inhibition
T1 construct: expressed in transfected cells; host or cells: CHO K1 cells (Chinese hamster ovary), stably transfected
T1 sequence (P97583 1-337): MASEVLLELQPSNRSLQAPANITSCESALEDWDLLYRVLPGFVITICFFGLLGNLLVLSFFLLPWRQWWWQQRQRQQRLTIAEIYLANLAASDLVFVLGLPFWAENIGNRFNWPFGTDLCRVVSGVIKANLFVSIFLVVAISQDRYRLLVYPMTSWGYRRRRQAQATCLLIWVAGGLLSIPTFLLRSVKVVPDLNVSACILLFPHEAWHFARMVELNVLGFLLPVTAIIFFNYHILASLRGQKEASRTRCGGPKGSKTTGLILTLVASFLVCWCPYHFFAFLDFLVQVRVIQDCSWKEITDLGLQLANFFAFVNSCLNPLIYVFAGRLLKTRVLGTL
Summary of the method: (§1)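 Stably transfected CHO K1 cells expressing human or rat B1R, Fluo-4-loaded, Ca2+ influx read by FLIPR (peak fluorescence). Compounds (10 μM for % activation) preincubated 10-20 min, then EC80 agonist added: Lys-Des-Arg9-bradykinin for human, Des-Arg9-bradykinin for rat; % inhibition versus maximal inhibition, IC50 from concentration series.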

[2] = biological target: T2, human B1R receptor (hB1R) (Homo sapiens, UniProt P46663); test: Functional FLIPR Ca2+ assay on the bradykinin 1 receptor, human (hB1R CHO K1 cells); type: cell-based; conditions: test substance 10 μM; CHO K1 cells transfected with human B1R gene; agonist Lys-Des-Arg9-bradykinin at EC80; % inhibition compared with maximum achievable inhibition; read-out: B1R antagonism, human (10 μM] % inhibition
T2 construct: expressed in transfected cells; host or cells: CHO K1 cells (Chinese hamster ovary), stably transfected
T2 sequence (P46663 1-353): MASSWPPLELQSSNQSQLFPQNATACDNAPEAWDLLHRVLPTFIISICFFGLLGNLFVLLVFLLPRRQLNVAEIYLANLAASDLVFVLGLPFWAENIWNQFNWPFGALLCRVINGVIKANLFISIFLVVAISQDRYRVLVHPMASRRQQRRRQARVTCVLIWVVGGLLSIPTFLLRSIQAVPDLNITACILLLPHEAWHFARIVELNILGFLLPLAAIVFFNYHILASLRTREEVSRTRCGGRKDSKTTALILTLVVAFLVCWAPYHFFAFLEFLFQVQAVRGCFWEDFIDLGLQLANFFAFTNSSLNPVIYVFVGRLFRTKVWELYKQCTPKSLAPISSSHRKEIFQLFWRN
Summary of the method: as §1

An inhibition at 10 µM [1] of 99% and an inhibition at 10 µM [2] of 98% were found for `COc1cc(C)c(S(=O)(=O)N2CCCCC2CCC(=O)N2CCc3sc(CN4CCN(C)CC4)cc3C2)c(C)c1` (centres unmarked) [Example 45, 3-(1-(4-methoxy-2,6-dimethylphenylsulfonyl)piperidin-2-yl)-1-(2-((4-methylpiperazin-1-yl)methyl)-6,7-dihydrothieno[3,2-c]pyridin-5(4H)-yl)propan-1-one] in this work.
An inhibition at 10 µM [1] of 70% and an inhibition at 10 µM [2] of 34% were found for `O=C(C[C@@H](NS(=O)(=O)c1ccc2ccccc2c1)c1ccccc1)N1CCc2sccc2C1c1ccc(F)cc1` (stereo partly drawn) [Example 21, N-((1R)-3-(4-(4-fluorophenyl)-6,7-dihydrothieno[3,2-c]pyridin-5(4H)-yl)-3-oxo-1-phenylpropyl)naphthalene-2-sulfonamide] in this work.
An inhibition at 10 µM [1] of 95% and an inhibition at 10 µM [2] of 99% were found for `COc1cc(C)c(S(=O)(=O)N(C)CCOCC(=O)N2CCc3nc(-c4ccncc4)sc3C2)c(C)c1` [Example 49, 4-methoxy-N,2,6-trimethyl-N-(2-(2-oxo-2-(2-(pyridin-4-yl)-6,7-dihydrothiazolo[5,4-c]pyridin-5(4H)-yl)ethoxy)ethyl)benzenesulfonamide] in this work.
An inhibition at 10 µM [1] of 106% and an inhibition at 10 µM [2] of 99% were found for `COc1cc(C)c(S(=O)(=O)N2CCC[C@H]2COCC(=O)N2CCc3sc(CN4CCCCC4)cc3C2)c(C)c1` [Example 63, 2-[[(2S)-1-[(4-methoxy-2,6-dimethyl-phenyl)sulfonyl]-pyrrolidin-2-yl]-methoxy]-1-[2-(piperidin-1-yl-methyl)-4,5,6,7-tetrahydro-thieno[3,2-c]pyridin-5-yl]-ethanone] in this work.
An inhibition at 10 µM [1] of 81% and an inhibition at 10 µM [2] of 43% were found for `Cc1cc(S(=O)(=O)N2CCCCC2CCC(=O)N2CCc3sccc3C2c2ccccc2)c(C)cc1Cl` (centres unmarked) [Example 16, 3-(1-(4-chloro-2,5-dimethylphenylsulfonyl)piperidin-2-yl)-1-(4-phenyl-6,7-dihydrothieno[3,2-c]pyridin-5(4H)-yl)propan-1-one] in this work.
An inhibition at 10 µM [1] of 99% and an inhibition at 10 µM [2] of 99% were found for `COc1cc(C)c(S(=O)(=O)N2CCCCC2CCCC(=O)N2CCc3nc(Cc4ccncc4)sc3C2)c(C)c1` (centres unmarked) [Example 43, 4-(1-(4-methoxy-2,6-dimethylphenylsulfonyl)piperidin-2-yl)-1-(2-(pyridin-4-ylmethyl)-6,7-dihydrothiazolo[5,4-c]pyridin-5(4H)-yl)butan-1-one] in this work.
An inhibition at 10 µM [1] of 90% and an inhibition at 10 µM [2] of 51% were found for `O=C(CC1CCCCN1S(=O)(=O)c1cccc(C(F)(F)F)c1)N1CCc2nc(Cc3ccncc3)sc2C1` (centres unmarked) [Example 40, 1-(2-(pyridin-4-ylmethyl)-6,7-dihydrothiazolo[5,4-c]pyridin-5(4H)-yl)-2-(1-(3-(trifluoromethyl)phenylsulfonyl)piperidin-2-yl)ethan-1-one] in this work.
An inhibition at 10 µM [1] of 101% and an inhibition at 10 µM [2] of 100% were found for `COc1cc(C)c(S(=O)(=O)N2CCCCC2CCCC(=O)N2CCc3sc(CN4CCN(C)CC4)cc3C2)c(C)c1` (centres unmarked) [Example 47, 4-(1-(4-methoxy-2,6-dimethylphenylsulfonyl)piperidin-2-yl)-1-(2-((4-methylpiperazin-1-yl)methyl)-6,7-dihydrothieno[3,2-c]pyridin-5(4H)-yl)butan-1-one] in this work.
An inhibition at 10 µM [1] of 102% and an inhibition at 10 µM [2] of 100% were found for `CN1CCN(Cc2cc3c(s2)CCN(C(=O)CC(NS(=O)(=O)c2ccc4ccccc4c2)c2ccccc2)C3)CC1` (racemic) [Example 46, N-(3-(2-((4-methylpiperazin-1-yl)methyl)-6,7-dihydrothieno[3,2-c]pyridin-5(4H)-yl)-3-oxo-1-phenylpropyl)naphthalene-2-sulfonamide] in this work.
An inhibition at 10 µM [1] of 106% and an inhibition at 10 µM [2] of 48% were found for `COc1cc(C)c(S(=O)(=O)N2CCCCC2COCC(=O)N2CCc3sccc3C2c2cccc(C)c2)c(C)c1` (centres unmarked) [Example 08, 2-((1-(4-methoxy-2,6-dimethylphenylsulfonyl)piperidin-2-yl)methoxy)-1-(4-m-tolyl-6,7-dihydrothieno[3,2-c]pyridin-5(4H)-yl)ethanone] in this work.
An inhibition at 10 µM [1] of 104% and an inhibition at 10 µM [2] of 69% were found for `COc1cc(C)c(S(=O)(=O)N2CCCCC2COCC(=O)N2CCc3sccc3C2c2ccc(C)cc2)c(C)c1` (centres unmarked) [Example 07, 2-((1-(4-methoxy-2,6-dimethylphenylsulfonyl)piperidin-2-yl)methoxy)-1-(4-p-tolyl-6,7-dihydrothieno[3,2-c]pyridin-5(4H)-yl)ethanone] in this work.
An inhibition at 10 µM [1] of 103% and an inhibition at 10 µM [2] of 86% were found for `COc1cc(C)c(S(=O)(=O)N2CCCCC2COCC(=O)N2CCc3onc(-c4ccc(F)cc4)c3C2)c(C)c1` (centres unmarked) [Example 25, 1-(3-(4-fluorophenyl)-6,7-dihydroisoxazolo[4,5-c]pyridin-5(4H)-yl)-2-((1-(4-methoxy-2,6-dimethylphenylsulfonyl)piperidin-2-yl)methoxy)ethanone] in this work.
An inhibition at 10 µM [1] of 99% and an inhibition at 10 µM [2] of 56% were found for `COc1cc(C)c(S(=O)(=O)N(C)CCOCC(=O)N2CCc3onc(CN4CCCCC4)c3C2)c(C)c1` [Example 13, 4-methoxy-N,2,6-trimethyl-N-(2-(2-oxo-2-(3-(piperidin-1-ylmethyl)-6,7-dihydroisoxazolo[4,5-c]pyridin-5(4H)-yl)ethoxy)ethyl)benzenesulfonamide] in this work.
